Test results published in patent US9738670B2, “Pentaaza macrocyclic ring complexes possessing oral bioavailability” (Galera Labs, LLC, priority 2015, dated 2017).
Values belong to the compound of their own block, whether it stands above or below them.

Legend:
[1] = Intraduodenal (id) bioavailability screen in minipigs, oil formulations, vs iv parent dichloro complex; type: in vivo, Gottingen minipig; settings: id 10 mg/kg, 10% by weight formulation, AUC0->24 h vs iv 1 mg/kg parent chloro complex
Protocol: Compounds were screened for oral bioavailability by injecting the formulated prodrugs directly into the duodenum (intraduodenal or id administration) of the minipig test subjects, thus bypassing the acidic environment of the stomach and thereby eliminating potentially misleading oral bioavailability results that could arise from alteration of the test article drug in the acid environment of the stomach.
The studies were conducted at Xenometrics LLC (Stillwell, Kans.) and the Id bioavailability was determined using various axial ligand derivative complexes of GC4419, GC4444, GC4403 and GC4401.
*Where the iv dose is 1 mg of test article drug per kilogram body weight of the mini-pig, and the dose administered id is 10 mg of test article drug per kg body weight of the mini-pig.
Male Gottingen minipigs (4-5 mo old, 9-12 kg weight) were purchased from Marshall BioResources and housed at Xenometrics. […] The distal end was exteriorized with a reusable accessible hub (see surgical details below). During a recovery period of at least 2 weeks the minipigs were handled daily to acclimate them to the test procedures, i.e., id dosing and blood collections. For each experiment, each minipig received a test article drug dissolved or suspended in an excipient vehicle. […] All dosing experiments were conducted in fasted animals. Food was withdrawn from the minipigs 16 hours before dosing. The minipigs had ad libitum access to water. Dosed minipigs were allowed access to food 6 hour after dosing. The test article was administered at a dose of 10 mg/kg parent drug in 0.1 m L/kg vehicle (e.g., 1.5 mL in 15 kg minipig) as a bolus injection (˜1 minute) via the id cannula. The actual amount of total test article drug administered varied with the formula weight of the prodrug. An equal volume of excipient vehicle was used to flush the cannula after the test article was administered. Approximately 6 hours later, corn oil was used to flush the cannula. After approximately 24 hours post-dose, the catheter was flushed with sterile saline solution and capped. At the following time-points 0.25, 0.5, 1, 2, 4, 8, 24 and 48 hour post-injection, 2 mL blood samples were collected by cranial vena cava puncture (4 mL Sodium heparin Vacutainer, 20 g 1.5″ needle) after the skin surface was wiped with ethanol. The minipig was placed in a sling in a recumbent position without anesthesia for the collection of blood samples. The minipigs were never used more than once per 7 days for experimentation. The blood samples were kept on ice until processed for plasma. Blood samples were centrifuged at 1200×g for ten minutes at 4° C. and plasma samples were transferred to 96 well plate tubes, capped and stored at −20° C. until shipment on dry ice to the analytical laboratory used for measuring the concentration of drug in the plasma. The concentration of the parent manganese pentaaza macrocylic ring complex (independent of the composition of the axial ligands) was measured in plasma using a validated HPLC/MS/MS method that is linear between 50 ng/mL and 20,000 ng/mL.
The oils used for preparing the dosing solutions were used as supplied from commercial sources. The Capmul MCM (NF) is a mixture of mono/diglycerides of caprylic/capric acids and was supplied by ABITEC Corporation, Janesville, Wis. The Miglyol 812 N is a mixture of caprylic/capric acid triglycerides and was supplied by Cremer Oleo Division, Eatontown, N.J. Labrafil M 2125 CS (NF) is chemically defined to be linoleoyl polyoxyl-6 glycerides NF and was supplied by Gattefosse, SAINT-PRIEST Cedex, France. Peceol is chemically defined to be the monoglyceride, glyceryl monooleate NF, and was supplied by Gattefosse, SAINT-PRIEST Cedex, France. Maisine 35-1 is chemically defined to be the monoglyceride glyceryl monolinoleate (NF) and was supplied by Gattefosse, SAINT-PRIEST Cedex, France. Labrasol (NF) is chemically defined to be caprylocaproyl polyoxyl-8 glycerides NF and was supplied by Gattefosse, SAINT-PRIEST Cedex, France. […]

[2] = tested on: experimental model of colitis; settings: intraperitoneal (ip) injection, rats; cited from earlier work
[3] = tested on: radiation-induced oral mucositis; settings: ip, hamster; cited from earlier work
[4] = tested on: lethal total body irradiation; settings: ip, adult mice; cited from earlier work
[5] = tested on: collagen-induced arthritis; settings: ip, rat; cited from earlier work
[6] = tested on: VEGFr inhibitor-induced pulmonary disease; settings: ip, rat; cited from earlier work
[7] = tested on: mouse cancer models; settings: ip; cited from earlier work
[8] = tested on: oral mucositis; settings: intravenous (iv) infusion, patients; cited from earlier work

Compound: [Cl-].[Cl-].[Mn+2].c1cc2nc(c1)CN[C@@H]1CCCC[C@H]1NCCN[C@@H]1CCCC[C@H]1NC2 [GC4403]
Mini-Pig BioA ([1]; base oil Capmul MCM): 9%
injury to the colon [2]: significantly reduce the injury to the colon
radiation damage [3]: attenuate the radiation damage
radiation damage [4]: attenuate the radiation damage
joint disease [5]: prevent joint disease

Compound: Manganese(II)bis-racemic-phenylglycinato[2S, 21S-Dimethyl(4aR,13aR,17aR,21aR)-1,2,3,4,4a,5,6,12,13,13a,14,15,16,17,17a,18,19,20,21,21a-Eicosahydro-11,7-nitrilo-7H-dibenzo[b,h][1,4,7,10] tetraazacycloheptadecine-KN5, KN13, KN18, KN21, KN22]- [GC4715]
Mini-Pig BioA ([1]; base oil Capmul MCM): 36%

Compound: Manganese(II)bis-racemic-phenylglycinato[6R-Methyl(4aR,13aR,17aR,21aR)-1,2,3,4,4a,5,6,12,13,13a,14,15,16,17,17a,18,19,20,21,21a-Eicosahydro-11,7-nitrilo-7H-dibenzo[b,h][1,4,7,10] tetraazacycloheptadecine-KN5, KN13, KN18, KN21, KN22]- [GC4716]
Mini-Pig BioA ([1]; base oil Capmul MCM): 34%

Compound: Manganese(II)bis-racemic-phenylglycinato[(4aR,13aR,17aR,21aR)-1,2,3,4,4a,5,6,12,13,13a,14,15,16,17,17a,18,19,20,21,21a-Eicosahydro-11,7-nitrilo-7H-dibenzo[b,h][1,4,7,10] tetraazacycloheptadecine-KN5, KN13, KN18, KN21, KN22]- [GC4717]
Mini-Pig BioA ([1]; base oil Capmul MCM): 26%

Continued, in another order:

Mini-Pig BioA ([1]; base oil Capmul MCM): 9%
Mini-Pig BioA ([1]; base oil Labrafil M2125 CS): 7%
Mini-Pig BioA ([1]; base oil Maisine 35-1): 8%
Mini-Pig BioA ([1]; base oil Miglyol 812N): 8%
Mini-Pig BioA ([1]; base oil Peceol): 9%
Compound: [Cl][Mn][Cl].c1cc2nc(c1)CN[C@H]1CCCC[C@@H]1NCCN[C@H]1CCCC[C@@H]1NC2 [GC4419, reference compound]
pulmonary disease [6]: attenuate VEGFr inhibitor-induced pulmonary disease
anti-tumor activity of co-administered agents [7]: increase the anti-tumor activity of anti-metabolite and anti-mitotic agents
oral mucositis [8]: reduce oral mucositis

Mini-Pig BioA ([1]; base oil Capmul MCM): 23%
Mini-Pig BioA ([1]; base oil Peceol): 24%
Compound: Manganese(II)bis-racemic-2-phenylpropionato[(4aS,13aS,17aS,21aS)-1,2,3,4,4a,5,6,12,13,13a,14,15,16,17,17a,18,19,20,21,21a-Eicosahydro-11,7-nitrilo-7H-dibenzo[b,h][1,4,7,10] tetraazacycloheptadecine-KN5, KN13, KN18, KN21, KN22]- [GC4705]

Mini-Pig BioA ([1]; base oil Capmul MCM): 33%
Mini-Pig BioA ([1]; base oil Miglyol 812N): 32%
Compound: Manganese(II)bis-racemic-phenylglycinato[(4aS,13aS,17aS,21aS)-1,2,3,4,4a,5,6,12,13,13a,14,15,16,17,17a,18,19,20,21,21a-Eicosahydro-11,7-nitrilo-7H-dibenzo[b,h][1,4,7,10] tetraazacycloheptadecine-KN5, KN13, KN18, KN21, KN22]- [GC4720]
